Values quoted from earlier work as cited in publication PMC9916969 (International Journal of Molecular Sciences, 2023).

What was measured:
porcine liver CES = conditions: compound 20 µM; cited from earlier work
[1] = cited from earlier work
equine serum BChE = target: T1, equine serum BChE (Equus caballus, UniProt P81908); conditions: compound 20 µM; cited from earlier work
T1 construct: human erythrocyte AChE, equine serum BChE, and porcine liver CES were used; purchased Sigma-Aldrich; host or cells: equine serum (tissue-derived)
T1 sequence (P81908 whole entry): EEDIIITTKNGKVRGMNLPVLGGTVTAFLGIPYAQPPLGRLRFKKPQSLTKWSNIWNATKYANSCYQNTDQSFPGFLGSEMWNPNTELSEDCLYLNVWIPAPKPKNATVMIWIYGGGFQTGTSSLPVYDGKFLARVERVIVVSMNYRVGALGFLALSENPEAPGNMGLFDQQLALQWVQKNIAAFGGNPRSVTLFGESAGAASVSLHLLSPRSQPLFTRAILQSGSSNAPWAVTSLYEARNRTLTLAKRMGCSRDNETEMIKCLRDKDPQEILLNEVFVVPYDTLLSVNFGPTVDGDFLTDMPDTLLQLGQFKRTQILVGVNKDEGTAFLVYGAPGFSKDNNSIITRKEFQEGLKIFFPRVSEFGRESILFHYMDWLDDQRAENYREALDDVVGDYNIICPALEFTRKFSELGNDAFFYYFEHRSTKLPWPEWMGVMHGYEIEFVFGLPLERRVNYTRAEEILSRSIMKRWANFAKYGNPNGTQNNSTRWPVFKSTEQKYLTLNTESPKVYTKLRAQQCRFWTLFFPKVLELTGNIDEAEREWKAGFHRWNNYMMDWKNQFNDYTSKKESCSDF

N-hexylsalicylamide
Inhibitory activity against CES, inhibition at 20 µM (porcine liver CES): 4.9 ± 1.0%
IC50 ([1]; 50% reduction of ABTS radical cation, read-out: ABTS^•+ Scavenging Activity, IC50): 46.5 ± 2.3 µM
ABTS^•+ Scavenging Activity, TEAC ([1]; Trolox equivalent): 0.39 ± 0.04
Inhibitory activity against BChE, inhibition at 20 µM (equine serum BChE): 10.6 ± 0.8%
